Assay results reported in patent US12139520B2 (priority 2020, dated 2024).
Bridge positions count the residues as written; N and C are the ends. Square brackets hold non-standard residues; d marks the D form. Peptide text beside a SMILES is read from it. Hyp = O=C(O)[C@@H]1C[C@@H](O)CN1

Key:
[1] = Physical stability of peptide analogues (Thioflavin T fibrillation); format: physicochemical; conditions: maximum ThT signal normalized between hAMY maximum and buffer background; 40° C., shaking, four days; pH 7 per table title
How it was run: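 Maximum ThT emission at 480 nm, after LOESS smoothing, is given as percent of the span from buffer background to hAMY. Conditions: 50 mM buffer at pH 4 or 7, 4 μM dye, 40 °C, repeated shaking, readings every 10 min for four days.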

hAM1 receptor = hAM1 receptor (Homo sapiens, UniProt O60895+Q16602); experiment: cAMP assay for in vitro receptor activation, hAM1-R; format: cell-based; conditions: cAMP assay, hAM1 receptor; read-out: hAM1R EC50
Sequence of hAM1 receptor (Q16602 23-461): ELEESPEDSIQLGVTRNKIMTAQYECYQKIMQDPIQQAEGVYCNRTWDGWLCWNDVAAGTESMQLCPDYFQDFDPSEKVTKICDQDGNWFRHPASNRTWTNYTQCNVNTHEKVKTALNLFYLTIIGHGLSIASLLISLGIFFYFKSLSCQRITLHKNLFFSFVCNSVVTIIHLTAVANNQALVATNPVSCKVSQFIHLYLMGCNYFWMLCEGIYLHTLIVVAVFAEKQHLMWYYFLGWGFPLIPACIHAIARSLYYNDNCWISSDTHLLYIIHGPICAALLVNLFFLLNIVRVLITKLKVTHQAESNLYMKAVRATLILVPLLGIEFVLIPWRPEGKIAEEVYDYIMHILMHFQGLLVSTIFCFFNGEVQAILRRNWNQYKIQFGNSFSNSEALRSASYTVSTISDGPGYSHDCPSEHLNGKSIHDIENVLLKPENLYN
Sequence of hAM1 receptor (O60895 43-175 partner): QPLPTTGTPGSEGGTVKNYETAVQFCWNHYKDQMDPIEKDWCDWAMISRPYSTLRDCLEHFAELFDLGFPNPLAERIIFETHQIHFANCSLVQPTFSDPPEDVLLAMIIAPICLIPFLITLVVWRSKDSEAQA
How it was run: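 Stable hAM1 cells (monoclonal) plated 8000/well; buffer DPBS, 0.05% casein, 0.5 mM IBMX; cAMP read-out.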

| SMILES | Max ThT signal (%) [1] | EC50 (hAM1 receptor) |
| --- | --- | --- |
| CC[C@H](C)[C@@H]1NC(=O)[C@H](CCCNC(=N)N)NC(=O)[C@@H](NC(=O)CN)CSSC[C@@H](C(=O)N[C@H](C(=O)N[C@H](C(=O)N[C@@H](CCC(N)=O)C(=O)N[C@@H](Cc2c[nH]c3ccccc23)C(=O)N[C@@H](CC(C)C)C(=O)N[C@@H](C)C(=O)N[C@@H](Cc2c[nH]cn2)C(=O)N[C@@H](CCC(N)=O)C(=O)N[C@H](C(=O)N[C@@H](Cc2ccc(O)cc2)C(=O)N[C@@H](CCC(N)=O)C(=O)N[C@@H](Cc2ccccc2)C(=O)N[C@H](C(=O)N[C@@H](CC(=O)O)C(=O)N[C@@H](CCCCN)C(=O)N[C@@H](Cc2ccccc2)C(=O)N[C@@H](CCCCN)C(=O)N[C@@H](CC(=O)O)C(=O)N[C@@H](CC(N)=O)C(=O)N[C@H](C(=O)N[C@@H](C)C(=O)N2CCC[C@H]2C(=O)N[C@@H](CCCNC(=N)N)C(=O)N[C@@H](CO)C(=O)N[C@@H](CCCCN)C(=O)N[C@H](C(=O)N[C@@H](CO)C(=O)N2CCC[C@H]2C(=O)N[C@@H](CCC(N)=O)C(=O)N[C@H](C(=O)N2C[C@H](O)C[C@H]2C(N)=O)[C@@H](C)O)[C@@H](C)CC)C(C)C)[C@@H](C)O)[C@@H](C)CC)C(C)C)[C@@H](C)O)NC(=O)[C@H]([C@@H](C)O)NC(=O)CNC1=O [compound 351] (H-GCRIGTCTVQWLAHQIYQFTDKFKDNVAPRSKISPQT[Hyp]-NH2; disulfide 2-7; N-terminus assumed) | 7.200% | > 5 µM |
| CC[C@H](C)[C@H](NC(=O)[C@H](CCCCN)NC(=O)[C@H](CO)NC(=O)[C@H](CCCNC(=N)N)NC(=O)[C@@H]1CCCN1C(=O)[C@H](C)NC(=O)[C@@H](NC(=O)[C@H](CC(N)=O)NC(=O)[C@H](CC(=O)O)NC(=O)[C@H](CCCCN)NC(=O)[C@H](CC(=O)O)NC(=O)[C@H](CCCCN)NC(=O)[C@H](CC(=O)O)NC(=O)[C@@H](NC(=O)[C@H](Cc1ccccc1)NC(=O)[C@H](CCC(N)=O)NC(=O)[C@H](Cc1ccc(O)cc1)NC(=O)[C@@H](NC(=O)[C@H](CCC(N)=O)NC(=O)[C@H](Cc1c[nH]cn1)NC(=O)[C@H](C)NC(=O)[C@H](CC(C)C)NC(=O)[C@H](Cc1c[nH]c2ccccc12)NC(=O)[C@H](CCC(N)=O)NC(=O)[C@@H](NC(=O)[C@@H](NC(=O)[C@@H]1CSSC[C@H](NC(=O)CN)C(=O)N[C@@H](CCCNC(=N)N)C(=O)N[C@@H]([C@@H](C)O)C(=O)NCC(=O)N[C@@H]([C@@H](C)O)C(=O)N1)[C@@H](C)O)C(C)C)[C@@H](C)CC)[C@@H](C)O)C(C)C)C(=O)NCC(=O)N1CCC[C@H]1C(=O)N[C@@H](CC(N)=O)C(=O)NCC(=O)N1C[C@H](O)C[C@H]1C(N)=O [compound 355] (H-GCRTGTCTVQWLAHQIYQFTDKDKDNVAPRSKIGPNG[Hyp]-NH2; disulfide 2-7; N-terminus assumed) | 25.350% | > 5 µM |
| CC[C@H](C)[C@H](NC(=O)[C@H](CC(N)=O)NC(=O)[C@@H](NC(=O)[C@H](CCCNC(=N)N)NC(=O)[C@@H]1CCCN1C(=O)[C@H](C)NC(=O)[C@@H](NC(=O)[C@H](CC(N)=O)NC(=O)[C@H](CC(=O)O)NC(=O)[C@H](CCCCN)NC(=O)[C@H](CC(=O)O)NC(=O)[C@H](CCCCN)NC(=O)[C@H](CC(=O)O)NC(=O)[C@@H](NC(=O)[C@H](Cc1ccccc1)NC(=O)[C@H](CCC(N)=O)NC(=O)[C@H](Cc1ccc(O)cc1)NC(=O)[C@@H](NC(=O)[C@H](CCC(N)=O)NC(=O)[C@H](Cc1c[nH]cn1)NC(=O)[C@H](C)NC(=O)[C@H](CC(C)C)NC(=O)[C@H](Cc1c[nH]c2ccccc12)NC(=O)[C@H](CCC(N)=O)NC(=O)[C@@H](NC(=O)[C@@H](NC(=O)[C@@H]1CSSC[C@H](NC(=O)CN)C(=O)N[C@@H](CCCNC(=N)N)C(=O)N[C@@H]([C@@H](C)O)C(=O)NCC(=O)N[C@@H]([C@@H](C)O)C(=O)N1)[C@@H](C)O)C(C)C)[C@@H](C)CC)[C@@H](C)O)C(C)C)[C@@H](C)O)C(=O)NCC(=O)N1CCC[C@H]1C(=O)N[C@@H](CCC(N)=O)C(=O)NCC(=O)N[C@@H](Cc1ccc(O)cc1)C(N)=O [compound 356] (H-GCRTGTCTVQWLAHQIYQFTDKDKDNVAPRTNIGPQGY-NH2; disulfide 2-7) | 1.250% | > 5 µM |
| CC[C@H](C)[C@H](NC(=O)[C@H](CCCCN)NC(=O)[C@@H](NC(=O)[C@H](CCCNC(=N)N)NC(=O)[C@@H]1CCCN1C(=O)[C@H](C)NC(=O)[C@@H](NC(=O)[C@H](CC(N)=O)NC(=O)[C@H](CC(=O)O)NC(=O)[C@H](CCCCN)NC(=O)[C@H](CC(=O)O)NC(=O)[C@H](CCCCN)NC(=O)[C@H](CC(=O)O)NC(=O)[C@@H](NC(=O)[C@H](Cc1ccccc1)NC(=O)[C@H](CCC(N)=O)NC(=O)[C@H](Cc1ccc(O)cc1)NC(=O)[C@@H](NC(=O)[C@H](CCC(N)=O)NC(=O)[C@H](Cc1c[nH]cn1)NC(=O)[C@H](C)NC(=O)[C@H](CC(C)C)NC(=O)[C@H](Cc1c[nH]c2ccccc12)NC(=O)[C@H](CCC(N)=O)NC(=O)[C@@H](NC(=O)[C@@H](NC(=O)[C@@H]1CSSC[C@H](NC(=O)CN)C(=O)N[C@@H](CCCNC(=N)N)C(=O)N[C@@H]([C@@H](C)O)C(=O)NCC(=O)N[C@@H]([C@@H](C)O)C(=O)N1)[C@@H](C)O)C(C)C)[C@@H](C)CC)[C@@H](C)O)C(C)C)[C@@H](C)O)C(=O)NCC(=O)N1CCC[C@H]1C(=O)N[C@@H](CCC(N)=O)C(=O)NCC(=O)N1C[C@H](O)C[C@H]1C(N)=O [compound 357] (H-GCRTGTCTVQWLAHQIYQFTDKDKDNVAPRTKIGPQG[Hyp]-NH2; disulfide 2-7; N-terminus assumed) | 19.750% | > 5 µM |
| CC[C@H](C)[C@H](NC(=O)[C@H](CC(N)=O)NC(=O)[C@H](CO)NC(=O)[C@H](CCCNC(=N)N)NC(=O)[C@@H]1CCCN1C(=O)[C@H](C)NC(=O)[C@@H](NC(=O)[C@H](CC(N)=O)NC(=O)[C@H](CC(=O)O)NC(=O)[C@H](CCCCN)NC(=O)[C@H](CC(=O)O)NC(=O)[C@H](CCCCN)NC(=O)[C@H](CC(=O)O)NC(=O)[C@@H](NC(=O)[C@H](Cc1ccccc1)NC(=O)[C@H](CCC(N)=O)NC(=O)[C@H](Cc1ccc(O)cc1)NC(=O)[C@@H](NC(=O)[C@H](CCC(N)=O)NC(=O)[C@H](Cc1c[nH]cn1)NC(=O)[C@H](C)NC(=O)[C@H](CC(C)C)NC(=O)[C@H](Cc1c[nH]c2ccccc12)NC(=O)[C@H](CCC(N)=O)NC(=O)[C@@H](NC(=O)[C@@H](NC(=O)[C@@H]1CSSC[C@H](NC(=O)CN)C(=O)N[C@@H](CCCNC(=N)N)C(=O)N[C@@H]([C@@H](C)O)C(=O)NCC(=O)N[C@@H]([C@@H](C)O)C(=O)N1)[C@@H](C)O)C(C)C)[C@@H](C)CC)[C@@H](C)O)C(C)C)C(=O)NCC(=O)N1CCC[C@H]1C(=O)N[C@@H](CCC(N)=O)C(=O)NCC(=O)N1C[C@H](O)C[C@H]1C(N)=O [compound 359] (H-GCRTGTCTVQWLAHQIYQFTDKDKDNVAPRSNIGPQG[Hyp]-NH2; disulfide 2-7; N-terminus assumed) | 20.350% | > 5 µM |
| CC[C@H](C)[C@H](NC(=O)[C@H](CCC(N)=O)NC(=O)[C@H](Cc1c[nH]cn1)NC(=O)[C@H](C)NC(=O)[C@H](CC(C)C)NC(=O)[C@H](Cc1c[nH]c2ccccc12)NC(=O)[C@H](CCC(N)=O)NC(=O)[C@@H](NC(=O)[C@@H](NC(=O)[C@@H]1CSSC[C@H](NC(=O)CN)C(=O)N[C@@H](CCCNC(=N)N)C(=O)N[C@@H]([C@@H](C)O)C(=O)NCC(=O)N[C@@H]([C@@H](C)O)C(=O)N1)[C@@H](C)O)C(C)C)C(=O)N[C@@H](Cc1ccc(O)cc1)C(=O)N[C@@H](CCC(N)=O)C(=O)N[C@@H](Cc1ccccc1)C(=O)N[C@H](C(=O)N[C@@H](CC(=O)O)C(=O)N[C@@H](CCCCN)C(=O)N[C@@H](CC(=O)O)C(=O)N[C@@H](CCCCN)C(=O)N[C@@H](CC(=O)O)C(=O)N[C@@H](CC(N)=O)C(=O)N[C@H](C(=O)N[C@@H](C)C(=O)N1CCC[C@H]1C(=O)N[C@@H](CCCNC(=N)N)C(=O)N[C@@H](CO)C(=O)N[C@@H](CC(N)=O)C(=O)N[C@H](C(=O)N[C@@H](CO)C(=O)N1CCC[C@H]1C(=O)N[C@@H](CC(N)=O)C(=O)NCC(=O)N1C[C@H](O)C[C@H]1C(N)=O)C(C)C)C(C)C)[C@@H](C)O [compound 360] (H-GCRTGTCTVQWLAHQIYQFTDKDKDNVAPRSNVSPNG[Hyp]-NH2; disulfide 2-7) | 26.350% | > 5 µM |
